Experimental findings from ChEMBL document CHEMBL1201862, “PubChem BioAssay data set” (2004) are described below.

Common to all, as to assay: DTP human tumour cell line panel, 48 h
In assay [1] the test system is HOP-92.
The test system of assay [2] is UACC-257.
Assay [3] relates to NCI-H522.
Assay [4] has as its system HOP-62.
Assay [5] has as its system M14.
The test system of assay [6] is SF-295.
For assay [7], the system named is SR.
Assay [8] has as its system KM-20L2.
Assay [9] concerns RPMI-8226.
Assay [10] has as its system HT-29.
Assay [11] has as its system M19-MEL.
Assay [12] relates to HCC 2998.
Assay [13] relates to U-251.
The subject of assay [14] is CCRF-CEM.
Assay [15] has as its system SN12C.
Assay [16] has as its system TK-10.
Assay [17] concerns OVCAR-5.
Assay [18] deals with CAKI-1.
Assay [19] deals with COLO 205.
The subject of assay [20] is PC-3.

The structures appear in SMILES notation.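 Dose response: 5 concentrations. Exposure: 48 h. Format: 96-well plates. Endpoint: linear interpolation; highest concentration if not reached. GI50 is the concentration that inhibits growth by half.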 Active and inactive are the calls of the source. Rule as the data show it: active = GI50 up to about 1.1 µM and inactive = higher.

For `O=C(COc1ccccc1)NS(=O)(=O)c1ccccc1`, the GI50 in assay [1], in assay [2], in assay [3], in [4], in assay [5] and in [6] was > 100 µM (inactive) throughout. The GI50 in assay [7], in assay [8], in [9], in [10], in [11] and in assay [12] was > 100 µM (inactive) in each case. The GI50 in assay [13], in [14], in [15], in assay [16], in assay [17] and in [18] was > 100 µM (inactive) each time. Also, the GI50 (in general, the concentration at which growth is held to half of that of the control) in assay [19] is > 100 µM (inactive).
In the case of `Cc1c(C(=O)CC(=O)C(=O)Nc2cc(Cl)ccc2Cl)[n+]([O-])c2ccccc2[n+]1[O-]`, the GI50 in [1] is > 100 µM (inactive); in assay [2] it was 34.8 µM (inactive); in assay [3], 23.1 µM (inactive); in assay [4], > 100 µM (inactive); in [5], 25.3 µM (inactive); in assay [6] it was > 100 µM (inactive). The GI50 in assay [7] is 28.4 µM (inactive); in assay [8], 36.1 µM (inactive); in [9], 21.7 µM (inactive); in assay [10], 28.5 µM (inactive); in [11], 25 µM (inactive); in assay [12], 37.7 µM (inactive). Besides, the GI50 was 34.8 µM (inactive) in [13]; 73.8 µM (inactive) in assay [14]; 36.8 µM (inactive) in [15]; > 100 µM (inactive) in [16]; > 100 µM (inactive) in [17]; > 100 µM (inactive) in assay [18]. The GI50 in [19] was 31.4 µM (inactive).
In the case of `CC(=O)NNc1nc(C)c(C(/C=C/c2ccc(Cl)cc2)=N\N=C(N)N)s1`, the GI50 is > 100 µM (inactive) in assay [1]; > 100 µM (inactive) in [2]; > 100 µM (inactive) in [3]; > 100 µM (inactive) in [4]; 82.6 µM (inactive) in assay [5]; > 100 µM (inactive) in assay [6]. Further, the GI50 in assay [7], in [8], in assay [9], in assay [10], in assay [11] and in assay [12] was > 100 µM (inactive) each time. Moreover, the GI50 in assay [13], in assay [14], in [15], in assay [16], in assay [17] and in assay [18] was > 100 µM (inactive) in each case. In addition, the GI50 in assay [19] was > 100 µM (inactive).
With `O=S(=O)(/C=C/c1ccc(Cl)cc1Cl)Cc1ccccc1CS(=O)(=O)/C=C/c1ccc(Cl)cc1Cl`, the GI50 in assay [1] is 35.8 µM (inactive); in [2], 52.8 µM (inactive); in assay [3], > 100 µM (inactive); in [4] it was > 100 µM (inactive); in assay [5], > 100 µM (inactive); in assay [6] it was 89.3 µM (inactive). Further, the GI50 in [7] was > 100 µM (inactive); in [8], > 100 µM (inactive); in assay [9], 5.15 µM (inactive); in assay [10], 49.4 µM (inactive); in assay [11] it was 20.9 µM (inactive); in [12], > 100 µM (inactive). Besides, the GI50 in [13] was > 100 µM (inactive); in [14], 9.27 µM (inactive); in [15], > 100 µM (inactive); in assay [16], > 100 µM (inactive); in assay [17], > 100 µM (inactive); in [18] it was > 100 µM (inactive). For the same compound, the GI50 in [19] is > 100 µM (inactive).
`Cc1ccc(S(=O)(=O)N/N=C/c2oc(-c3ccccc3Cl)c(-c3ccccc3Cl)c2[N+](=O)[O-])cc1`: the GI50 is 28.5 µM (inactive) in assay [1]; 37.2 µM (inactive) in [2]; 6.07 µM (inactive) in assay [3]; 17.6 µM (inactive) in [4]; 31 µM (inactive) in assay [5]; > 100 µM (inactive) in assay [6]. For the same compound, the GI50 was 7.64 µM (inactive) in [7]; 15.4 µM (inactive) in assay [8]; 3.73 µM (inactive) in assay [9]; 31.2 µM (inactive) in assay [10]; 23.3 µM (inactive) in [11]; 21 µM (inactive) in [12]. In addition, the GI50 was 7.24 µM (inactive) in assay [14]; 14.8 µM (inactive) in assay [15]; 59 µM (inactive) in [16]; 17.5 µM (inactive) in [17]; 36.9 µM (inactive) in [18]; 28.1 µM (inactive) in assay [19].
In the case of `Nc1c(S(=O)(=O)c2ccccc2)c2nc3ccccc3nc2n2c1nc1ccccc12`, the GI50 in assay [1] is > 100 µM (inactive); in assay [2], > 51.5 µM (inactive); in [3] it was 36.5 µM (inactive); in assay [4] it was 19.4 µM (inactive); in [5], 16.2 µM (inactive); in [6], > 34.7 µM (inactive). For the same compound, the GI50 in [7] is > 71.6 µM (inactive); in assay [8] it was > 100 µM (inactive); in assay [9] it was > 100 µM (inactive); in assay [10] it was > 84.1 µM (inactive); in [11] it was 29.8 µM (inactive); in assay [12] it was > 78.5 µM (inactive). In addition, the GI50 was 24.7 µM (inactive) in [13]; > 39.2 µM (inactive) in [14]; > 48.1 µM (inactive) in assay [15]; > 100 µM (inactive) in [16]; > 100 µM (inactive) in assay [17]; > 54.1 µM (inactive) in assay [18]. Further, in assay [19], the GI50 is > 100 µM (inactive).
As to `CC1CC(C)CC(C)C(O)/C(C#N)=C/C=C/CC(C2CCCC2C(=O)O)OC(=O)CC(O)C(C)C1` (configuration not stated), the GI50 was < 0.01 µM (active) in assay [1]; 0.0154 µM (active) in assay [2]; < 0.01 µM (active) in assay [3]; 0.0148 µM (active) in assay [4]; < 0.0121 µM (active) in [5]; 0.0303 µM (active) in assay [6]. For the same compound, the GI50 is < 0.0116 µM (active) in [7]; 0.0362 µM (active) in assay [8]; < 0.0305 µM (active) in assay [9]; 0.0202 µM (active) in [11]; 0.0151 µM (active) in assay [12]; 0.0115 µM (active) in [13]. Also, the GI50 is 0.0118 µM (active) in assay [14]; 0.029 µM (active) in [15]; 0.0301 µM (active) in [16]; < 0.01 µM (active) in assay [17]; < 0.01 µM (active) in [18]; 0.0225 µM (active) in [19]. For the same compound, the GI50 in assay [20] was 0.0251 µM (active).
Regarding `C[C@@H](CN1CC(=O)NC(=O)C1)N1CC(=O)NC(=O)C1` [DEXRAZOXANE], the GI50 in assay [1] was 196 µM (inactive); in assay [2] it was 492 µM (inactive); in assay [3] it was 67.8 µM (inactive); in assay [4], 66.8 µM (inactive); in assay [5] it was 360 µM (inactive); in assay [6], 259 µM (inactive). Further, the GI50 was 93.1 µM (inactive) in assay [7]; 123 µM (inactive) in assay [8]; 327 µM (inactive) in assay [9]; 110 µM (inactive) in [10]; 311 µM (inactive) in assay [11]; 473 µM (inactive) in [12]. Further, the GI50 in assay [13] was 228 µM (inactive); in assay [14] it was 21.4 µM (inactive); in assay [15], 232 µM (inactive); in [16], 222 µM (inactive); in assay [17], 372 µM (inactive); in assay [18], 90.6 µM (inactive). In addition, the GI50 in assay [19] is 12.5 µM (inactive); in assay [20], 180 µM (inactive).
